Assay [1] concerns A 2780 (ovary cancer) cell line. Briefly: cells. The assay is classed as cell-based. The settings on record: Homo sapiens, A2780, 48 h; for GI50: read-out: GI50 A 2780, 48 h drug exposure, SRB, mean of three determinations; for CC50: read-out: LC50 A 2780, 50% cell death, 48 h drug exposure, SRB. The protocol: (§1) Anticancer activity: In vitro biological activity studies were carried out at the Advance Center for Treatment Research & Education in Cancer (ACTREC), Navi Mumbai.
(§2) The compounds were evaluated for in vitro anticancer activity against eight tumour cells lines derived from seven cancer types (non-small-cell lung, colon, oral, cervix, ovarian, prostate, and breast cancer) as shown in Table 2. For each compound, dose response curves for each cell line were measured at a minimum of five concentrations at 10 fold dilutions. A protocol of 48 h continuous drug exposure was used and a sulforhodamine B (SRB) protein assay was used to estimate cell viability or growth. The concentration causing 50% cell growth inhibition (GI50) and 50% cell death (LC50, −50% growth) compared with the control was calculated. Compounds 9a-9l have been evaluated for their in vitro cytotoxicity in eight cell lines from seven human cancer types of lung (Hop-62, A-549) colon (COLO-205) cervix (Si—Ha), ovary (A-2780), prostate (PC3) breast (MCF7), oral (KB). The results are expressed as percent of cell growth determined relative to that of untreated control cells (Table-8 and table-9).

Assay [2] relates to Colo 205 (colon cancer) cell line. Briefly: cells. The assay is classed as cell-based. The settings on record: Homo sapiens, COLO 205, 48 h; for GI50: read-out: GI50 Colo 205, 48 h drug exposure, SRB, mean of three determinations; for CC50: read-out: LC50 Colo 205. The protocol: as §1, §2
The subject of assay [3] is A 549 (lung cancer) cell line. Description: cells. The assay is classed as cell-based. The settings on record: Homo sapiens, A549, 48 h; for GI50: read-out: GI50 A 549, 48 h drug exposure, SRB, mean of three determinations; for CC50: read-out: LC50 A 549, 50% cell death, 48 h drug exposure, SRB. As for the experimental part:
as §1, §2

Assay [4] deals with MCF 7 (breast cancer) cell line. Description: cells. Particulars: Homo sapiens, MCF7, 48 h; for GI50: read-out: GI50 MCF 7; for LC50 (concentration causing 50% cell death): read-out: LC50 MCF 7, 50% cell death, 48 h drug exposure, SRB. It is filed as cell-based. As for the experimental part:
as §1, §2

Assay [5] has as its system PC 3 (prostate cancer) cell line. Briefly: cells. The settings on record: Homo sapiens, 48 h; for GI50: read-out: GI50 PC 3; for CC50: read-out: LC50 Pc 3, 50% cell death, 48 h drug exposure, SRB. The assay is classed as cell-based. The protocol: as §1, §2
Assay [6] deals with SiHa (cervix cancer) cell line. Briefly: cells. The settings on record: Homo sapiens, SiHa, 48 h; for GI50: read-out: GI50 SiHa, 48 h drug exposure, SRB, mean of three determinations; for LC50 (concentration causing 50% cell death): read-out: LC50 SiHa, 50% cell death, 48 h drug exposure, SRB. The assay is classed as cell-based. As for the experimental part: as §1, §2
Assay [7] has as its system HOP 62 (lung cancer) cell line. Description: cells. The settings on record: Homo sapiens, HOP-62, 48 h; for GI50: read-out: GI50 HOP 62, 48 h drug exposure, SRB, mean of three determinations; for LC50: read-out: LC50 HOP 62, 50% cell death, 48 h drug exposure, SRB. It is filed as cell-based. As for the experimental part:
as §1, §2

Assay [8] has as its system duplex-form calf thymus DNA (CT-DNA). Description: Thermal denaturation studies with calf thymus DNA (DNA binding affinity). Particulars: [PBD]:[DNA] 1:5, CT-DNA 100 μM, ligand 20 μM, pH 7.00. The protocol:
Compounds have been subjected to thermal denaturation studies with duplex-form calf thymus DNA (CT-DNA) using an modification of a reported procedure (Newman, M. S. Carcinog-compr. Surv. 1976,1, 203; (b) Hecht, S. S.; Loy, M.; Hoffman, Carcinog-compr. Surv. 1976, 1, 325). Working solutions in aqueous buffer (10 mM NaH2PO4/Na2HPO4, 1 mM Na2EDTA, pH 7.00+0.01) containing CT-DNA (100 μm in phosphate) and the PBD (20 μm) have been prepared by addition of concentrated PBD solutions in DMSO to obtain a fixed [PBD]/[DNA] molar ratio of 1:5. The DNA-PBD solutions have been incubated at 37° C. for 0 and 18 h prior to analysis. Samples have been monitored at 260 using a Beckman DU-800 spectrophotometer fitted with high performance temperature controller, and heated at 1° C. min^−1 in the 40-110° C. range. DNA helix→coil transition temperatures (Tm) have been obtained from the maxima in the d(A260)/dT derivative plots. Drug-induced alterations in DNA melting behavior are given by: ΔTm=Tm(DNA+PBD)−Tm(DNA alone), where the Tm value for the PBD-free CT-DNA is 69.1±0.01.
The DNA binding activity for these novel C8-linked benzothiazole, benzoxazole-PBD hybrids has been examined by thermal denaturation studies using calf thymus (CT) DNA. […] The data for the compounds 9a-n is included in Table 7 for comparison.

Assay [9] deals with KB (oral cancer) cell line. Description: In vitro anticancer activity, SRB assay, KB. It is filed as cell-based, human. Particulars: Homo sapiens, 48 h; for GI50: read-out: GI50 KB, 48 h drug exposure, SRB, mean of three determinations; for CC50: read-out: LC50 KB, 50% cell death, 48 h drug exposure, SRB. The protocol:
as §1, §2
On the technique in general: In SRB staining, fixed cells bind dye roughly in proportion to their protein.

In assay [10] the test system is eight tumour cells lines derived from seven cancer types. Briefly: In vitro anticancer activity, SRB assay, panel of eight cell lines. It is filed as cell-based. Particulars: Homo sapiens, range over the eight cell lines per compound; read-out: GI50 range against cancer cell lines. The protocol:
as §1, §2

The GI50 is the concentration giving 50% growth inhibition. For orientation: LC50 means the concentration that kills 50% of the test population. For the molecule `COc1cc2c(cc1OCCCN1CCN(CCCOc3ccc(-c4nc5ccccc5s4)cc3)CC1)N=C[C@@H]1CCCN1C2=O` [Compound 9a], the concentration for 50% growth inhibition (GI50) in assay [1] was 108 nM; in assay [2] it was 100 nM; in assay [3], 130 nM; in assay [4] it was less than 10 nM; in [5] it was 120 nM; in [6] it was 130 nM. Besides, the GI50 in assay [7] is 100 nM; in assay [9] it was 120 nM; in assay [10] it was not above 130 nM. The CC50 was 23000 nM in assay [1]; more than 100000 nM in assay [2]; more than 100000 nM in assay [3]; 28000 nM in assay [5]; 2400 nM in [9]. Moreover, the values for the LC50 (concentration causing 50% cell death) in assay [4] and in assay [6] were 1900 nM and 27500 nM, respectively. The LC50 in assay [7] worked out at 27000 nM. The “ΔTm after incubation at 37° C. for 0 h” value in [8] turned out to be 10.2 °C. Besides, the “ΔTm after incubation at 37° C. for 18 h” value in assay [8] amounted to 10.8 °C.
As to `COc1cc(-c2nc3ccccc3s2)ccc1OCCCN1CCN(CCCOc2cc3c(cc2OC)C(=O)N2CCC[C@H]2C=N3)CC1` [Compound 9b], the GI50 is less than 10 nM in assay [1]; 90 nM in assay [2]; 120 nM in assay [3]; less than 10 nM in [4]; less than 10 nM in assay [5]; less than 10 nM in assay [6]. Besides, the GI50 in assay [7] is less than 10 nM; in assay [9], less than 10 nM; in assay [10], not above 120 nM. Moreover, the CC50 in assay [1] was 120 nM; in [2], more than 100000 nM; in assay [3], more than 100000 nM; in assay [5], 2400 nM; in [9], 2200 nM. Also, the LC50 (concentration causing 50% cell death) in [4] is less than 10 nM; in [6] it was 2400 nM. Further, the 50% lethal concentration (LC50) in [7] was 28000 nM. Besides, the “ΔTm after incubation at 37° C. for 0 h” value in assay [8] came out at 12.1 °C. Further, the “ΔTm after incubation at 37° C. for 18 h” value in assay [8] was found to be 12.7 °C.
Consider `COc1cc2c(cc1OCCCN1CCN(CCCOc3ccc(-c4nc5ccc(F)cc5s4)cc3)CC1)N=C[C@@H]1CCCN1C2=O` [Compound 9c], for which the GI50 in assay [1] is 116 nM; in [2], 130 nM; in assay [3], less than 10 nM; in assay [4], less than 10 nM; in assay [5], 110 nM; in assay [6], 130 nM. Besides, the concentration for 50% growth inhibition (GI50) in assay [7] is 110 nM; in assay [9], 110 nM; in assay [10] it was not above 130 nM. Further, the CC50 in [1] was 2300 nM; in [2], more than 100000 nM; in [3] it was 33000 nM; in assay [5], 2300 nM; in assay [9], 26000 nM. The figures for the LC50 (concentration causing 50% cell death) in assay [4] and in assay [6] were 170 nM and 27000 nM, respectively. Further, the LC50 in assay [7] is 29000 nM. Further, the “ΔTm after incubation at 37° C. for 0 h” value in assay [8] was 10.3 °C. Besides, the “ΔTm after incubation at 37° C. for 18 h” value in [8] was determined as 10.7 °C.
In the case of `COc1cc2c(cc1OCCCN1CCN(CCCOc3cccc(-c4nc5ccccc5s4)c3)CC1)N=C[C@@H]1CCCN1C2=O` [Compound 9d, 7-Methoxy-8-[3-(4-{3-[3(1,3-benzothiazol-2-yl)-phenoxy]propyl}piperazin-1-yl)propyl]oxy-(11aS)-1,2,3,11a-tetrahydro-5H-pyrrolo[2,1-c][1,4]benzodiazepin-5-one], the concentration for 50% growth inhibition (GI50) in assay [1] is 99 nM; in assay [2], 110 nM; in [3] it was less than 10 nM; in assay [4] it was 10 nM; in assay [5], less than 10 nM; in assay [6], 120 nM. Further, the concentration for 50% growth inhibition (GI50) in assay [7] is less than 10 nM; in [9], 110 nM; in assay [10], not above 120 nM. For the same molecule, the CC50 was 2400 nM in assay [1]; more than 100000 nM in assay [2]; more than 100000 nM in assay [3]; 28000 nM in [5]; 2300 nM in [9]. The values for the LC50 (concentration causing 50% cell death) in assay [4] and in assay [6] were 2100 nM and 26000 nM, respectively. In addition, the LC50 in assay [7] was found to be 27000 nM. Further, the “ΔTm after incubation at 37° C. for 0 h” value in assay [8] came to 11.2 °C. In addition, in assay [8], the “ΔTm after incubation at 37° C. for 18 h” value was found to be 11.5 °C.
For `COc1cc2c(cc1OCCCCN1CCN(CCCCOc3ccc(-c4nc5ccc(F)cc5s4)cc3)CC1)N=C[C@@H]1CCCN1C2=O` [Compound 9g, 7-Methoxy-8-[4-(4-{4-[4(6-fluoro-1,3-benzothiazol-2-yl)-phenoxy]butyl}piperazin-1-yl)butyl]oxy-(11aS)-1,2,3,11a-tetrahydro-5H-pyrrolo[2,1-c][1,4]benzodiazepin-5-one], the GI50 in assay [1] is 147 nM; in assay [2] it was 100 nM; in assay [3] it was less than 10 nM; in assay [4], 140 nM; in [5] it was 160 nM; in [6], 168 nM. The GI50 in assay [7] is 160 nM; in assay [9], 160 nM; in assay [10], not above 168 nM. Also, the CC50 in assay [1] is 2250 nM; in assay [2] it was more than 100000 nM; in assay [3] it was more than 100000 nM; in assay [5], 31000 nM; in assay [9], more than 100000 nM. The LC50 (concentration causing 50% cell death) in assay [4] worked out at 2400 nM; in [6], 311 nM. Moreover, in assay [7], the median lethal concentration (LC50) is more than 100000 nM. Further, the “ΔTm after incubation at 37° C. for 0 h” value in assay [8] came to 12.3 °C. Moreover, the “ΔTm after incubation at 37° C. for 18 h” value in [8] was 12.6 °C.
On to `COc1cc2c(cc1OCCCN1CCN(CCCOc3ccc(-c4nc5ccccc5o4)cc3)CC1)N=C[C@@H]1CCCN1C2=O` [Compound 9i], for which the concentration for 50% growth inhibition (GI50) is 80 nM in [1]; less than 10 nM in [2]; less than 10 nM in assay [3]; less than 10 nM in assay [4]; less than 10 nM in assay [5]; 117 nM in assay [6]. Besides, the concentration for 50% growth inhibition (GI50) was 110 nM in assay [7], less than 10 nM in assay [9] and not above 117 nM in assay [10]. The CC50 in [1] is 2250 nM; in assay [2], more than 100000 nM; in assay [3] it was more than 100000 nM; in assay [5] it was 230 nM; in assay [9], 28000 nM. For the same molecule, the LC50 (concentration causing 50% cell death) in assay [4] turned out to be 150 nM; in assay [6], 28500 nM. Besides, the LC50 in assay [7] was determined as 27000 nM. For the same molecule, in assay [8], the “ΔTm after incubation at 37° C. for 0 h” value is 9.5 °C. The “ΔTm after incubation at 37° C. for 18 h” value in assay [8] was 9.7 °C.

The values above are taken from patent US8637665B2, “Pyrrolo[2,L-C][L,4]benzodiazepine-benzothiazole or benzoxazole conjugates linked through piperazine moiety and process for the preparation thereof” (priority 2010, dated 2014).
